{
  "source": "patent US3939143A",
  "about": "“1-N-isoserylkanamycins and the production thereof” (Zaidan Hojin Biseibutsu Kagaku Kenkyu Kai, priority 1973, dated 1976)",
  "key": {"[1]": {"system": "Staphylococcus aureus FDA 209P", "assay": "Minimum inhibitory concentration, serial dilution on nutrient agar", "format": "cell-based", "settings": "FDA209P, 37°C, 18 hours, read-out: Minimum Inhibitory Concentration"}, "[2]": {"system": "Staphylococcus aureus Smith", "assay": "Minimum inhibitory concentration, serial dilution on nutrient agar", "format": "cell-based", "settings": "37°C, 18 hours, read-out: Minimum Inhibitory Concentration"}, "[3]": {"system": "Staphylococcus aureus Terajima", "assay": "Minimum inhibitory concentration, serial dilution on nutrient agar", "format": "cell-based", "settings": "37°C, 18 hours, read-out: Minimum Inhibitory Concentration"}, "Sarcina lutea PCI 1001": {"system": "Sarcina lutea PCI 1001", "assay": "Minimum inhibitory concentration, serial dilution on nutrient agar", "format": "cell-based", "settings": "Micrococcus luteus, PCI1001; 37°C, 18 hours; read-out: Minimum Inhibitory Concentration"}, "Bacillus anthracis": {"system": "Bacillus anthracis", "assay": "microbe, parasite or virus in culture", "format": "cell-based", "settings": "18 h, read-out: Minimum Inhibitory Concentration"}, "[4]": {"system": "Bacillus subtilis PCI 219", "assay": "Minimum inhibitory concentration, serial dilution on nutrient agar", "format": "cell-based", "settings": "PCI219, 37°C, 18 hours, read-out: Minimum Inhibitory Concentration"}, "[5]": {"system": "Bacillus subtilis NRRL B-558", "assay": "Minimum inhibitory concentration, serial dilution on nutrient agar", "format": "cell-based", "settings": "NRRLB558, 37°C, 18 hours, read-out: Minimum Inhibitory Concentration"}, "[6]": {"system": "Bacillus cereus ATCC 10702", "assay": "Minimum inhibitory concentration, serial dilution on nutrient agar", "format": "cell-based", "settings": "ATCC10702, 37°C, 18 hours, read-out: Minimum Inhibitory Concentration"}, "[7]": {"system": "Corynebacterium bovis 1810", "assay": "Minimum inhibitory concentration, serial dilution on nutrient agar", "format": "cell-based", "settings": "Corynebacterium bovis, 1810; 37°C, 18 hours; read-out: Minimum Inhibitory Concentration"}, "[8]": {"system": "Mycobacterium smegmatis ATCC 607", "assay": "Minimum inhibitory concentration, serial dilution on nutrient agar", "format": "cell-based", "settings": "Mycolicibacterium smegmatis, ATCC607; 37°C, 18 hours; read-out: Minimum Inhibitory Concentration"}, "[9]": {"system": "Shigella dysenteriae JS 11910", "assay": "Minimum inhibitory concentration, serial dilution on nutrient agar", "format": "cell-based", "settings": "JS11910, 18 h, read-out: Minimum Inhibitory Concentration"}, "[10]": {"system": "Escherichia coli K-12 ML 1630", "assay": "Minimum inhibitory concentration, serial dilution on nutrient agar", "format": "cell-based", "settings": "K12ML1630, 37°C, 18 hours", "method": "(§1) The minimum inhibitory concentrations (mcg/ml) of 1-N-DL-isoserylkanamycin,1-N-DL-isoserylkanamycin B and 1-N-DL-isoseryl-3',4'-dideoxykanamycin B against various microorganisms were determined according to the serial dilution method using nutrient agar medium at 37°C, the estimation being effected after 18 hours incubation. For comparison purposes, the minimum inhibitory concentrations of kanamycin, kanamycin B and 3',4'-dideoxykanamycin B were also determined in the same manner and under the same conditions as mentioned above.\n(§2) The antibacterial spectra of 1-N-DL-isoseryl-kanamycin (abbreviated as 1-IS-KM), 1-N-DL-isoseryl-kanamycin B (abbreviated as 1-IS-KMB) and 1-N-DL-isoseryl-3',4'-dideoxykanamycin B (abbreviated as 1-IS-DKB) are shown in the following table together with those of kanamycin (abbreviatedas KM), kanamycin B (abbreviated as KMB) and 3',4'-dideoxykanamycin B (abbreviated as DKB)."}, "[11]": {"system": "Pseudomonas aeruginosa A3", "assay": "Minimum inhibitory concentration, serial dilution on nutrient agar", "format": "cell-based", "settings": "37°C, 18 hours", "method": "as §1, §2"}, "[12]": {"system": "Pseudomonas aeruginosa TI-13", "assay": "Minimum inhibitory concentration, serial dilution on nutrient agar", "format": "cell-based", "settings": "TI13, 37°C, 18 hours", "method": "as §1, §2"}, "[13]": {"system": "Shigella flexneri 4b JS 11811", "assay": "Minimum inhibitory concentration, serial dilution on nutrient agar", "format": "cell-based", "settings": "4BJS11811, 37°C, 18 hours", "method": "as §1, §2"}, "Shigella sonnei JS 11746": {"system": "Shigella sonnei JS 11746", "assay": "Minimum inhibitory concentration, serial dilution on nutrient agar", "format": "cell-based", "settings": "JS11746, 37°C, 18 hours", "method": "as §1, §2"}, "Salmonella typhosa T-63": {"system": "Salmonella typhosa T-63", "assay": "Minimum inhibitory concentration, serial dilution on nutrient agar", "format": "cell-based", "settings": "Salmonella enterica, 18 h, read-out: Minimum Inhibitory Concentration"}, "[14]": {"system": "Salmonella enteritidis 1891", "assay": "Minimum inhibitory concentration, serial dilution on nutrient agar", "format": "cell-based", "settings": "Salmonella enterica, 37°C, 18 hours, read-out: Minimum Inhibitory Concentration"}, "Proteus vulgaris OX 19": {"system": "Proteus vulgaris OX 19", "assay": "Minimum inhibitory concentration, serial dilution on nutrient agar", "format": "cell-based", "settings": "OX19, 37°C, 18 hours, read-out: Minimum Inhibitory Concentration"}, "[15]": {"system": "Klebsiella pneumoniae PCI 602", "assay": "Minimum inhibitory concentration, serial dilution on nutrient agar", "format": "cell-based", "settings": "PCI602, 37°C, 18 hours, read-out: Minimum Inhibitory Concentration"}, "[16]": {"system": "Klebsiella pneumoniae 22 No. 3038", "assay": "Minimum inhibitory concentration, serial dilution on nutrient agar", "format": "cell-based", "settings": "22NO.3038, 37°C, 18 hours, read-out: Minimum Inhibitory Concentration"}, "Escherichia coli NIHJ": {"system": "Escherichia coli NIHJ", "assay": "Minimum inhibitory concentration, serial dilution on nutrient agar", "format": "cell-based", "settings": "37°C, 18 hours, read-out: Minimum Inhibitory Concentration"}, "Escherichia coli K-12": {"system": "Escherichia coli K-12", "assay": "Minimum inhibitory concentration, serial dilution on nutrient agar", "format": "cell-based", "settings": "K12, 37°C, 18 hours, read-out: Minimum Inhibitory Concentration"}, "[17]": {"system": "Escherichia coli K-12 ML 1629", "assay": "Minimum inhibitory concentration, serial dilution on nutrient agar", "format": "cell-based", "settings": "K12ML1629, 37°C, 18 hours, read-out: Minimum Inhibitory Concentration"}, "[18]": {"system": "Escherichia coli K-12 ML 1410", "assay": "Minimum inhibitory concentration, serial dilution on nutrient agar", "format": "cell-based", "settings": "K12ML1410, 37°C, 18 hours, read-out: Minimum Inhibitory Concentration"}, "[19]": {"system": "Escherichia coli LA290 R55", "assay": "Minimum inhibitory concentration, serial dilution on nutrient agar", "format": "cell-based", "settings": "LA290R55, 18 h, read-out: Minimum Inhibitory Concentration"}, "[20]": {"system": "Escherichia coli LA290 R56", "assay": "Minimum inhibitory concentration, serial dilution on nutrient agar", "format": "cell-based", "settings": "LA290R56, 18 h, read-out: Minimum Inhibitory Concentration"}, "[21]": {"system": "Escherichia coli LA290 R64", "assay": "Minimum inhibitory concentration, serial dilution on nutrient agar", "format": "cell-based", "settings": "LA290R64, 18 h, read-out: Minimum Inhibitory Concentration"}, "Escherichia coli W677": {"system": "Escherichia coli W677", "assay": "Minimum inhibitory concentration, serial dilution on nutrient agar", "format": "cell-based", "settings": "W677, 37°C, 18 hours, read-out: Minimum Inhibitory Concentration"}, "[22]": {"system": "Escherichia coli JR66/W677", "assay": "Minimum inhibitory concentration, serial dilution on nutrient agar", "format": "cell-based", "settings": "JR66/W677, 18 h, read-out: Minimum Inhibitory Concentration"}, "[23]": {"system": "Pseudomonas aeruginosa No.12", "assay": "Minimum inhibitory concentration, serial dilution on nutrient agar", "format": "cell-based", "settings": "NO.12, 37°C, 18 hours, read-out: Minimum Inhibitory Concentration"}, "[24]": {"system": "Pseudomonas aeruginosa GN315", "assay": "Minimum inhibitory concentration, serial dilution on nutrient agar", "format": "cell-based", "settings": "GN315, 37°C, 18 hours, read-out: Minimum Inhibitory Concentration"}, "[25]": {"system": "Pseudomonas aeruginosa 99", "assay": "Minimum inhibitory concentration, serial dilution on nutrient agar", "format": "cell-based", "settings": "Pseudomonas aeruginosa, 99, 18 h, read-out: Minimum Inhibitory Concentration"}, "[26]": {"system": "gram-negative and gram-positive bacteria", "assay": "antibacterial activity, in words", "format": "cell-based", "settings": "gram-negative and gram-positive bacteria sensitive to kanamycins", "method": "as §1, §2"}, "[27]": {"system": "drug-resistant strains of Escherichia coli and Pseudomonas aeruginosa", "assay": "antibacterial activity against drug-resistant strains, in words", "format": "cell-based"}, "[28]": {"assay": "acute toxicity upon intravenous injection in mice", "format": "in vivo", "settings": "mouse, in vivo; intravenous injection, mice"}},
  "data": [
    {"smiles": "NCC(O)C(=O)N[C@@H]1C[C@H](N)[C@@H](O[C@H]2O[C@H](CN)CC[C@H]2N)[C@H](O)[C@H]1O[C@H]1O[C@H](CO)[C@@H](O)[C@H](N)[C@H]1O", "note": "(mixture of isomers) [1-IS-DKB, 1-N-DL-isoseryl-3',4'-dideoxykanamycin B]", "values": [
      {"measurement": "MIC", "setting": "[1]", "result": 0.78, "unit": "µg/mL"},
      {"measurement": "MIC", "setting": "[2]", "result": "< 0.2", "unit": "µg/mL"},
      {"measurement": "MIC", "setting": "[3]", "result": "< 0.2", "unit": "µg/mL"},
      {"measurement": "MIC", "setting": "Sarcina lutea PCI 1001", "result": 1.56, "unit": "µg/mL"},
      {"measurement": "MIC", "setting": "Bacillus anthracis", "result": "< 0.2", "unit": "µg/mL"},
      {"measurement": "MIC", "setting": "[4]", "result": "< 0.2", "unit": "µg/mL"},
      {"measurement": "MIC", "setting": "[5]", "result": "< 0.2", "unit": "µg/mL"},
      {"measurement": "MIC", "setting": "[6]", "result": 1.56, "unit": "µg/mL"},
      {"measurement": "MIC", "setting": "[7]", "result": 0.78, "unit": "µg/mL"},
      {"measurement": "MIC", "setting": "[8]", "result": "< 0.2", "unit": "µg/mL"},
      {"measurement": "MIC", "setting": "[9]", "result": 3.13, "unit": "µg/mL"},
      {"measurement": "MIC", "setting": "[10]", "result": 1.56, "unit": "µg/mL"},
      {"measurement": "MIC", "setting": "[11]", "result": 3.13, "unit": "µg/mL"},
      {"measurement": "MIC", "setting": "[12]", "result": 3.13, "unit": "µg/mL"},
      {"measurement": "MIC", "setting": "[13]", "result": 3.13, "unit": "µg/mL"},
      {"measurement": "MIC", "setting": "Shigella sonnei JS 11746", "result": 3.13, "unit": "µg/mL"},
      {"measurement": "MIC", "setting": "Salmonella typhosa T-63", "result": 0.78, "unit": "µg/mL"},
      {"measurement": "MIC", "setting": "[14]", "result": 0.39, "unit": "µg/mL"},
      {"measurement": "MIC", "setting": "Proteus vulgaris OX 19", "result": 0.2, "unit": "µg/mL"},
      {"measurement": "MIC", "setting": "[15]", "result": 0.39, "unit": "µg/mL"},
      {"measurement": "MIC", "setting": "[16]", "result": 1.56, "unit": "µg/mL"},
      {"measurement": "MIC", "setting": "Escherichia coli NIHJ", "result": 1.56, "unit": "µg/mL"},
      {"measurement": "MIC", "setting": "Escherichia coli K-12", "result": 1.56, "unit": "µg/mL"},
      {"measurement": "MIC", "setting": "[17]", "result": 1.56, "unit": "µg/mL"},
      {"measurement": "MIC", "setting": "[18]", "result": 1.56, "unit": "µg/mL"},
      {"measurement": "MIC", "setting": "[19]", "result": 1.56, "unit": "µg/mL"},
      {"measurement": "MIC", "setting": "[20]", "result": 0.39, "unit": "µg/mL"},
      {"measurement": "MIC", "setting": "[21]", "result": 0.39, "unit": "µg/mL"},
      {"measurement": "MIC", "setting": "Escherichia coli W677", "result": 0.78, "unit": "µg/mL"},
      {"measurement": "MIC", "setting": "[22]", "result": 3.13, "unit": "µg/mL"},
      {"measurement": "MIC", "setting": "[23]", "result": 1.56, "unit": "µg/mL"},
      {"measurement": "MIC", "setting": "[24]", "result": 12.5, "unit": "µg/mL"},
      {"measurement": "MIC", "setting": "[25]", "result": 3.13, "unit": "µg/mL"},
      {"measurement": "antibacterial activity", "setting": "[26]", "result": "high antibacterial activity"},
      {"measurement": "antibacterial activity", "setting": "[27]", "result": "high antibacterial activity"},
      {"measurement": "LD50", "setting": "[28]", "result": "> 100", "unit": "mg/kg"}
    ]}
  ]
}
